Measured values published in patent US8273780B2, “Polycyclic antagonists of lysophosphatidic acid receptors” (Amira Pharmaceuticals, Inc., priority 2009, dated 2012).

Experiments:
Human LPA1 = molecular target: T1, Human LPA1 (Homo sapiens, UniProt Q92633); assay: LPA1 calcium flux assay; type: cell-based; conditions: CHO cells expressing human LPA1, 10 nM LPA; read-out: HLPA1 Ca Flux IC50
T1 construct: the full-length cDNA for human LPA1 was obtained by PCR of the reverse transcription reaction; expressed in transfected cells
T1 sequence (Q92633 whole entry): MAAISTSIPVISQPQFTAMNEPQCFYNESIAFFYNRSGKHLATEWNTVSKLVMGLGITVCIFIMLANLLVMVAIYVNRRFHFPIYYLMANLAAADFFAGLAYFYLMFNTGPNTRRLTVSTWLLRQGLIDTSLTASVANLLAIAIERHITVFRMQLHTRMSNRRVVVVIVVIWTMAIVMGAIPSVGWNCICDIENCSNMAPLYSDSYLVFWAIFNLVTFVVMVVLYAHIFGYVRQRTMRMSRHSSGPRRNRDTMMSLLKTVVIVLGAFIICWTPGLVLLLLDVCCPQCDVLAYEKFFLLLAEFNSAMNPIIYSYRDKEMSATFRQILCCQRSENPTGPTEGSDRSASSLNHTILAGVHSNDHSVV
Method: A 1.1 kb cDNA encoding the human LPA1 receptor was cloned from human lung. Human lung RNA (Clontech Laboratories, Inc. USA) was reverse transcribed using the RETROscript kit (Ambion, Inc.) and the full-length cDNA for human LPA1 was obtained by PCR of the reverse transcription reaction. The nucleotide sequence of the cloned human LPA1 was determined by sequencing and confirmed to be identical to the published human LPA1 sequence (An et al. Biochem. Biophys. Res. Commun. 231:619 (1997). The cDNA was cloned into the pcDNA5/FRT expression plasmid and transfected in CHO cells using lipofectamine 2000 (Invitrogen Corp., USA). Clones stably expressing human LPA1 were selected using hygromycin and identified as cells that show Ca-influx in response to LPA.
Human LPA1 or LPA3 expressing CHO cells are seeded at 20,000-45,000 cells per well in a 96-well poly-D-lysine coated plate one or two days before the assay. Prior to the assay, the cells are washed once with PBS and then cultured in serum-free media overnight. On the day of the assay, a calcium indicator dye (Calcium 4, Molecular Devices) in assay buffer (HBSS with Ca^2+and Mg^2+ and containing 20 mM Hepes and 0.3% fatty-acid free human serum albumin) is added to each well and incubation continued for 1 hour at 37° C. 10 μl of test compounds in 2.5% DMSO are added to the cells and incubation continued at room temperature for 30 minutes. Cells are the stimulated by the addition of 10 nM LPA and intracellular Ca^2+ measured using the Flexstation 3 (Molecular Devices). IC50s are determined using Graphpad prism analysis of drug titration curves.

[1] = test system: human A2058 melanoma cells; assay: LPA1 chemotaxis assay; type: cell-based; conditions: 100 nM LPA, read-out: inhibition of LPA-driven chemotaxis IC50
Method: Chemotaxis of the A2058 human melanoma cells was measured using the Neuroprobe ChemoTx® System plates (8 μM pore size, 5.7 mm diameter sites). The filter sites were coated with 0.001% fibronectin (Sigma) in 20 mM Hepes, pH 7.4 and allowed to dry. A2058 cells were serum-starved for 24 hours, then harvested with Cell Stripper and resuspended in DMEM containing 0.1% fatty-acid-free bovine serum albumin (BSA) to a concentration of 1×10^6/ml. Cells were mixed with an equal volume of test compound (2×) in DMEM containing 0.1% fatty-acid-free BSA and incubated at 37° C. for 15 minutes. LPA (100 nM in DMEM containing 0.1% fatty-acid-free BSA) or vehicle was added to each well of the lower chamber and 50 μl of the cell suspension/test compound mix was applied to the upper portion of the ChemoTx plate. Plates were incubated at 37° C. for three hours and then the cells removed from the upper portion by rinsing with PBS and scraping. The filter was dried then stained with HEMA 3 Staining System (Fisher Scientific). The absorbance of the filter was read at 590 nm and IC50s were determined using Symyx Assay Explorer.

C57BL/6 mice = assay: Mouse carbon tetrachloride (CCl4)-induced liver fibrosis model; type: in vivo; conditions: compared to the untreated group
Method: Female C57BL/6 mice (Harlan, 20-25 g) housed 4/cage are given free access to food and water and allowed to acclimate for at least 7 days prior to test initiation. After the habituation phase, mice receive CCl4 (1.0 ml/kg body weight) diluted in corn oil vehicle (100 μL volume) via i.p. injection twice a week for 8 weeks. (Higazi, A. A. et al., Clin Exp Immunol. 2008 April; 152(1):163-73. Epub 2008 Feb. 14.). Control mice receive an equivalent volume of corn oil vehicle only. Test compound or vehicle is delivered po, ip or sc daily. […] Liver tissue homogenates are analyzed for collagen levels using Sircol (Biocolor Ltd, UK). Fixed Liver tissue is stained using hematoxylin and eosin (H&E) and trichrome and liver fibrosis is determined by quantitative, computer-assisted densitometry of collagen in liver tissue sections using light microscopy. Plasma and liver tissue lysates are also analyzed for concentrations of inflammatory, pro-fibrotic and tissue injury biomarkers including transforming growth factor β1, hyaluronic acid, tissue inhibitor of metalloproteinase-1, matrix matelloproteinase-7, connective tissue growth factor and lactate dehydrogenase activity, using commercially available ELISA. The resulting data are plotted using Graphpad prism and statistical differences between groups determined.

BALB/c mice = assay: Mouse dermal vascular leak assay; type: in vivo; conditions: 30 mg/kg oral gavage, three hours before dye; intradermal LPA 30 μg
Method: Female BALB/c mice (Harlan) weighing 20-25 grams were given free access to standard mouse chow and water and were allowed to acclimate for two weeks prior to study initiation. Compound 1 was prepared in water vehicle at a concentration of 3 mg/ml and delivered by oral gavage at a volume of 10 ml/kg to yield a dose of 30 mg/kg. Three hours following dose, mice were placed into a restraining device and given Evan's blue dye intravenously by tail vein injection (0.2 ml of a 0.5% solution). Mice were then anesthetized using 3% isoflurane anaesthesia to allow for intradermal injection of LPA (30 μg in 20 μl 0.1% fatty acid free BSA). Thirty minutes after LPA injection mice were sacrificed by CO2 inhalation and the skin removed from the challenge site and placed into 2 ml formamide for overnight extraction of Evan's blue dye.
Following extraction, a 150 μl aliquot of formamide for each tissue sample was placed into a 96 well plate and read at 610 nm using a photospectometer. The resulting data (OD units) were plotted using GraphPad Prizm. In this experiment compound 1 reduced LPA-induced Evan's blue dye leak into the skin.

Cc1noc(-c2ccc(-c3ccc(C4(C(=O)O)CC4)cc3)cc2)c1NC(=O)O[C@H](C)c1ccccc1 [Compound 1, 1-{4′-[3-Methyl-4-((R)-1-phenyl-ethoxycarbonylamino)-isoxazol-5-yl]-biphenyl-4-yl}-cyclopropanecarboxylic acid]
IC50 (Human LPA1): < 300 nM | IC50 [1]: < 100 nM | collagen deposition in the liver (C57BL/6 mice): significantly reduced | liver weight increase (C57BL/6 mice): significantly reduced | LPA-induced Evan's blue dye leak into the skin (BALB/c mice): reduced
